What follows are compounds tested against human NAMPT enzyme (His-hNAMPT) (Homo sapiens (Human), UniProt P43490) (assay: NAMPT enzymatic inhibition assay (fluorescence, NADH product)). Settings: [BPS]; read-out: NAMPT IC50 (μM) [BPS].
Type: biochemical

human NAMPT enzyme (His-hNAMPT), sequence (P43490 whole entry): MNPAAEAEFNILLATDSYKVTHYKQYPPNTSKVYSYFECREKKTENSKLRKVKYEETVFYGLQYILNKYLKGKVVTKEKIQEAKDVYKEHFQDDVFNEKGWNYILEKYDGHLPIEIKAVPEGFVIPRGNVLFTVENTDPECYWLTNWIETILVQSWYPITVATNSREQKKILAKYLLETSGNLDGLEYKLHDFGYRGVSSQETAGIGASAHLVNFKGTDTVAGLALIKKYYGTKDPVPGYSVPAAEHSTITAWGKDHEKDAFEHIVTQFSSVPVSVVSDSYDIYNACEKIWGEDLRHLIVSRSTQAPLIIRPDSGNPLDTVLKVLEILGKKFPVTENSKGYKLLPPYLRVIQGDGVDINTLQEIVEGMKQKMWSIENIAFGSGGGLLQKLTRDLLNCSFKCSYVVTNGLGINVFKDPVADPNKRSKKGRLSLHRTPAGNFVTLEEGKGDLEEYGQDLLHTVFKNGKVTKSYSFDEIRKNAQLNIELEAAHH

Compound	IC50 [µM]
Nc1ccc(/C=C/C(=O)NCC[C@@H]2[C@H]3CN(C(=O)N4CCOCC4)C[C@@H]23)cn1 [Example 29, (E)-3-(6-aminopyridin-3-yl)-N-(2-((1R,5S,6s)-3-(morpholine-4-carbonyl)-3-azabicyclo[3.1.0]hexan-6-yl)ethyl)acrylamide]	0.01 to 0.49
O=C(NCC[C@@H]1[C@H]2CN(C(=O)OC3CCCC3)C[C@@H]12)c1cc2ccncc2o1 [Example 71, (1R,5S,6s)-(cyclopentyl) 6-(2-(furo[2,3-c]pyridine-2-carboxamido)ethyl)-3-azabicyclo[3.1.0]hexane-3-carboxylate]	0.01 to 0.49
CC1(OC(=O)N2C[C@@H]3[C@@H](CCNC(=O)/C=C/c4cnc(N)nc4)[C@@H]3C2)COC1 [Example 54, (1R,5S,6s)-3-methyloxetan-3-yl 6-(2-((E)-3-(2-aminopyrimidin-5-yl)acrylamido)ethyl)-3-azabicyclo[3.1.0]hexane-3-carboxylate]	1 to 29
CC1(OC(=O)N2C[C@@H]3[C@@H](CCNC(=O)c4cc5ccncc5s4)[C@@H]3C2)COC1 [Example 26, (1R,5S,6s)-3-methyloxetan-3-yl 6-(2-(thieno[2,3-c]pyridine-2-carboxamido)ethyl)-3-azabicyclo[3.1.0]hexane-3-carboxylate]	0.01 to 0.49

Same assay, conditions: [HDB]; read-out: NAMPT IC50 (μM) [HDB]

Compound	IC50 [µM]
CNC(=O)C(c1ccccc1)N1C[C@@H]2[C@@H](CCNC(=O)/C=C/c3cccnc3)[C@@H]2C1 (stereo partly drawn) [Example 317, (E)-N-(2-((1R,5S,6s)-3-(2-(methylamino)-2-oxo-1-phenylethyl)-3-azabicyclo[3.1.0]hexan-6-yl)ethyl)-3-(pyridin-3-yl)acrylamide]	< 0.01
O=C(NCC[C@@H]1[C@H]2CN(c3nc(Cl)ncc3F)C[C@@H]12)c1cnc2nccn2c1 [Example 213, N-(2-((1R,5S,6s)-3-(2-chloro-5-fluoropyrimidin-4-yl)-3-azabicyclo[3.1.0]hexan-6-yl)ethyl)imidazo[1,2-a]pyrimidine-6-carboxamide]	0.01 to 0.49
O=C(/C=C/c1cccnc1)NCC[C@@H]1[C@H]2CN(CCc3ccccc3)C[C@@H]12 [Example 295, (E)-N-(2-((1R,5S,6s)-3-phenethyl-3-azabicyclo[3.1.0]hexan-6-yl)ethyl)-3-(pyridin-3-yl)acrylamide]	0.01 to 0.49
O=C(/C=C/c1ccc(O)nc1)NCC[C@@H]1[C@H]2CN(c3nc(Cl)ncc3F)C[C@@H]12 [Example 211, (E)-N-(2-((1R,5S,6s)-3-(2-chloro-5-fluoropyrimidin-4-yl)-3-azabicyclo[3.1.0]hexan-6-yl)ethyl)-3-(6-hydroxypyridin-3-yl)acrylamide]	0.01 to 0.49
O=C(NCC[C@@H]1[C@H]2CN(c3nc(Cl)ncc3F)C[C@@H]12)N1Cc2ccncc2C1 [Example 226, N-(2-((1R,5S,6s)-3-(2-chloro-5-fluoropyrimidin-4-yl)-3-azabicyclo[3.1.0]hexan-6-yl)ethyl)-1H-pyrrolo[3,4-c]pyridine-2(3H)-carboxamide]	0.01 to 0.49
NC(=O)C(c1ccccc1)N1C[C@@H]2[C@@H](CCNC(=O)/C=C/c3cccnc3)[C@@H]2C1 (stereo partly drawn) [Example 283, (E)-N-(2-((1R,5S,6s)-3-(2-amino-2-oxo-1-phenylethyl)-3-azabicyclo[3.1.0]hexan-6-yl)ethyl)-3-(pyridin-3-yl)acrylamide]	< 0.01
O=C(/C=C/c1cccnc1)NCC[C@@H]1[C@H]2CN(Cc3ccc(Cl)cc3)C[C@@H]12 [Example 302, (E)-N-(2-((1R,5S,6s)-3-(4-chlorobenzyl)-3-azabicyclo[3.1.0]hexan-6-yl)ethyl)-3-(pyridin-3-yl)acrylamide]	0.01 to 0.49
O=C(/C=C/c1cccnc1)NCC[C@@]1(F)[C@@H]2CN(Cc3ccccc3)C[C@@H]21 [Example 289, (E)-N-(2-((1R,5S,6r)-3-benzyl-6-fluoro-3-azabicyclo[3.1.0]hexan-6-yl)ethyl)-3-(pyridin-3-yl)acrylamide]	0.01 to 0.49
O=C(NCC[C@@H]1[C@H]2CN(c3ccccc3)C[C@@H]12)c1cc2ccncc2o1 [Example 193, N-(2-((1R,5S,6s)-3-phenyl-3-azabicyclo[3.1.0]hexan-6-yl)ethyl)furo[2,3-c]pyridine-2-carboxamide]	< 0.01
